Assay results from patent US6703485B2, “Brain and heart cyclic nucleotide gated ion channel compounds and uses thereof” (The Trustees of Columbia University in the City of New York, priority 1997, dated 2004).
Where “and” joins values, the source holds several entries; their conditions need not be identical. Identical values can stand only once.

Key:
mBCNG-1 channel = biological target: T1, mBCNG-1 channel (Mus musculus, UniProt O88704); assay type: biochemical
T1 construct: expressed in transfected cells; host or cells: Xenopus oocytes injected with cRNA (pSD64TR vector, SP6 transcript); cell-free inside-out and outside-out patches
T1 sequence (O88704 whole entry): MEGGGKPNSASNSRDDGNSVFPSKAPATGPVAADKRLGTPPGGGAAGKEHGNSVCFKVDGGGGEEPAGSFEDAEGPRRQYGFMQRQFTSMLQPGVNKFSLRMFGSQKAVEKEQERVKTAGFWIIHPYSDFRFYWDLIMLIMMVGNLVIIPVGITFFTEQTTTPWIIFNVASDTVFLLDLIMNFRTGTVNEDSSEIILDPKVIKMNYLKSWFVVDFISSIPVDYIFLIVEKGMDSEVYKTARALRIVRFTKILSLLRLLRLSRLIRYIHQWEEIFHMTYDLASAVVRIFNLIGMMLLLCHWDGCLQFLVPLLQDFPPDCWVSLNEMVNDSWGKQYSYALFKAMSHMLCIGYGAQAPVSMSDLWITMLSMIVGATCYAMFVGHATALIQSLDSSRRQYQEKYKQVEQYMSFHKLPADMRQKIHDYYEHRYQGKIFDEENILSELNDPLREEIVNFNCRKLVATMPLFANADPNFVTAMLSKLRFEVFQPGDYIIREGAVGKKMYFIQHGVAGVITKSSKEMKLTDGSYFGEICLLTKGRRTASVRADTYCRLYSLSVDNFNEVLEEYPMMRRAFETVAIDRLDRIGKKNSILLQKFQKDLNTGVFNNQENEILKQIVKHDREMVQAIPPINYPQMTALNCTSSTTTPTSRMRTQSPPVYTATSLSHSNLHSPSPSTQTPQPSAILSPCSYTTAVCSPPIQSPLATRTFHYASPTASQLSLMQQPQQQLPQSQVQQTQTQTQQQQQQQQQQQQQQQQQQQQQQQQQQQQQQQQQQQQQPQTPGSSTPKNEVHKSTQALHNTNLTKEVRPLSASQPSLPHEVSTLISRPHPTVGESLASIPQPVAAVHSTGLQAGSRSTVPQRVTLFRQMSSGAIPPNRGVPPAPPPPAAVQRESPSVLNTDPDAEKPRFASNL

[1] = biological target: T2, bovine photoreceptor CNG channels (Bos taurus, UniProt Q00194); conditions: Kramer and Tibbs, 1996; cited from earlier work
T2 sequence (Q00194 1-690): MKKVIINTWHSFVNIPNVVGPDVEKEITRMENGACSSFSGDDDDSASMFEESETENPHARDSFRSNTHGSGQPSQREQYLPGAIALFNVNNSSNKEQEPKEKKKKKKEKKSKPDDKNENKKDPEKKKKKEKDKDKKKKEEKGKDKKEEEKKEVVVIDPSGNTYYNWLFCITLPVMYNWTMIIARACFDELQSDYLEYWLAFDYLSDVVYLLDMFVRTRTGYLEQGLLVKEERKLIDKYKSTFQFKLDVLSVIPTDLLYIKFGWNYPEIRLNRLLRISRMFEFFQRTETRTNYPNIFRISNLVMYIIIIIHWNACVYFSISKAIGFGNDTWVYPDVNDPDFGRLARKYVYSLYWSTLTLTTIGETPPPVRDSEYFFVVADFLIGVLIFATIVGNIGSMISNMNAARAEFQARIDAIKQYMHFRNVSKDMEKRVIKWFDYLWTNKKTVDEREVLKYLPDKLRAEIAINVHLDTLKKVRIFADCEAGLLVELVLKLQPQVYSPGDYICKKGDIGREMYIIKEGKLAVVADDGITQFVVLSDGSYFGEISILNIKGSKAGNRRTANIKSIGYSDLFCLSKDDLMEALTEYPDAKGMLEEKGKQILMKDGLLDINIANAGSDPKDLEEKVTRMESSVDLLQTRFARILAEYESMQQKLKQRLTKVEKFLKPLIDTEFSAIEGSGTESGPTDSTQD

Pacemaker channel = conditions: myocardial ischemia, Schlack et al., 1998; cited from earlier work
[2] = test system: Ih in hippocampal neurons; conditions: Pedarzani and Storm, 1995; cited from earlier work
If in sino-atrial node = conditions: DiFrancesco and Tortora, 1991; cited from earlier work
Ih in sensory neurons = conditions: Ingram and Williams; cited from earlier work

For `[Ba+2]` [Ba], the “mean percent inhibition of mBCNG-1 current” value (mBCNG-1 channel; 1 mM Ba in external solution, outside-out patch, n=3) was 0±5%.

In the case of `[Cl-].[Cs+]` [Cs], the “% inhibition of mBCNG-1 current” value (mBCNG-1 channel) is reported as 92.4±2.5%, the “Hill coefficient for inhibition of mBCNG-1 current by Cs” value (mBCNG-1 channel) is reported as ~1 and 1.08 and the IC50 (mBCNG-1 channel; read-out: IC50 for inhibition of mBCNG-1 current by Cs) is reported as ~200 µM and 201 µM.

In the case of `Nc1nc2c(ncn2[C@@H]2O[C@@H]3COP(O)(=S)O[C@H]3[C@H]2O)c(=O)[nH]1` (stereo partly shown) [Rp-cGMPS], the “Effect on channel opening” value [1] is listed as “antagonist of channel opening”.

In the case of `Nc1nc2c(ncn2[C@@H]2O[C@@H]3COP(O)(=S)O[C@H]3[C@H]2O)c(=O)[nH]1` (stereo partly shown) [Sp-cGMPS], the “Effect on channel opening” value [1] is listed as “agonist”.

For `CCN(c1ccccc1)c1cc(=NC)n(C)c(C)n1.Cl` [ZD 7288], the “Effect on infarct size” value (Pacemaker channel) is given as “reduce infarct size”.

In the case of `Nc1ncnc2c1ncn2[C@@H]1O[C@@H]2COP(=O)(O)O[C@H]2[C@H]1O` [cAMP], the “cAMP-dependent shift of Ih” value [2] is listed as 2-3 mV, the “cAMP-dependent shift of If” value (If in sino-atrial node) is listed as 10 mV and the “cAMP-dependent shift of Ih” value (Ih in sensory neurons) is listed as 4-6 mV.
